Laboratory results published in US20230024521A1, “JAK INHIBITORS” (Vimalan Biosciences, Inc., priority 2019, published 2023).

What was measured:
JAK2 = JAK2 (Homo sapiens, UniProt O60674); experiment: JAK/TYK2 assay (Kinase Glo luminescence): Jak2 kinase assay; format: biochemical; settings: 0.8 nM enzyme, 2 uM ATP, 4 uM pEY, 1 hr; read-out: Jak2 kinase assay: IC50 Geomean
Protocol: (§1) Example A: JAK/TYK2 Assay 10 mM test compound stock or 1 mM control compound stock (tofocitinib, ruxolitinib or staurosporine) in DMSO was diluted to 0.4 mM in DMSO. A 3-fold series dilution was then performed in DMSO to generate 10 different compound concentrations. The assay was carried out in 384-well white plate. 0.5 μL of 40× compound DMSO solution at different concentrations was mixed with 10 uL 2× enzyme prepared in reaction buffer (20 mM HEPES, 10 mM MgCl2, 0.01% Tween, 1 mM DTT, pH 7.5). 10 uL 2× substrate mixture prepared in reaction buffer was then added to start the reaction. A short spin was done to settle down all solutions to the bottom of the plate. Final concentrations of test compound in the reaction mixture were 10000, 3333, 1111, 370, 123, 41.2, 13.7, 4.57, 1.52 and 0.51 nM, Concentrations of control compound were ten times less. Enzymatic reaction was conducted at 25° C. for 1-2 hours. 10 uL of Kinase Glo Reagents was added to stop the reaction and generate the luminescent signal which was measured using Envision. Luminescence signal was inversely related to kinase activity. […] The mixture without any compound was the positive control. [table]

JAK3 = target: T1, JAK3 (Homo sapiens, UniProt P52333); experiment: JAK/TYK2 assay (Kinase Glo luminescence): Jak3 kinase assay; format: biochemical; settings: 1.5 nM enzyme, 2 uM ATP, 4 uM pEY, 1 hr; read-out: Jak3 kinase assay: IC50 Geomean
T1 sequence (P52333 1-1124): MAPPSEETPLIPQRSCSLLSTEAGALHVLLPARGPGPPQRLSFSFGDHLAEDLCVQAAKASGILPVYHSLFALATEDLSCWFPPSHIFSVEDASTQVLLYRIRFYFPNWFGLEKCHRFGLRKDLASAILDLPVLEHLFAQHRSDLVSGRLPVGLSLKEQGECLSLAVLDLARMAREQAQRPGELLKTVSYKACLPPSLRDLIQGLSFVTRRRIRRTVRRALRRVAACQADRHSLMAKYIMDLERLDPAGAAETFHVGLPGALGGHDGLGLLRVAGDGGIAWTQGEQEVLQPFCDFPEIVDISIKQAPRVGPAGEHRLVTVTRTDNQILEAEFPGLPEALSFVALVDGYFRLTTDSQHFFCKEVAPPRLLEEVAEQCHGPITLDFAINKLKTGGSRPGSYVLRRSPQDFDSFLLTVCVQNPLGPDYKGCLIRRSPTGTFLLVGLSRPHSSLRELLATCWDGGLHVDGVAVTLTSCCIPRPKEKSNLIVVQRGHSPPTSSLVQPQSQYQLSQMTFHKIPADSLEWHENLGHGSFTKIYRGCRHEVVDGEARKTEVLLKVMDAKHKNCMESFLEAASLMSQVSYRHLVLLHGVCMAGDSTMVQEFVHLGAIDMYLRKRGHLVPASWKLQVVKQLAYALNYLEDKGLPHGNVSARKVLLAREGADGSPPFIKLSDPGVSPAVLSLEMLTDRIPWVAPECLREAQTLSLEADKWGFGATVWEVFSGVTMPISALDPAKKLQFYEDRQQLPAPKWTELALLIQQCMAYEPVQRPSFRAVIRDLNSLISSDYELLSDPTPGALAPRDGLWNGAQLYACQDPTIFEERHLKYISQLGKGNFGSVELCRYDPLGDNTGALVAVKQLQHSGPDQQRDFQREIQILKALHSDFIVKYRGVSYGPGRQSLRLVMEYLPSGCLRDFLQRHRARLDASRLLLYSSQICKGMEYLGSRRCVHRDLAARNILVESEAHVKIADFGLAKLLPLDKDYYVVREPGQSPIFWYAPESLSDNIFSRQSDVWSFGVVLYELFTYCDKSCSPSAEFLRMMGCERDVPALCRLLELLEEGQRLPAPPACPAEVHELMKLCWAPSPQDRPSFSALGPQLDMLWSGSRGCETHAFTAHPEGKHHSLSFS
Protocol: as §1

JAK2, sequence (O60674 whole entry, species assumed): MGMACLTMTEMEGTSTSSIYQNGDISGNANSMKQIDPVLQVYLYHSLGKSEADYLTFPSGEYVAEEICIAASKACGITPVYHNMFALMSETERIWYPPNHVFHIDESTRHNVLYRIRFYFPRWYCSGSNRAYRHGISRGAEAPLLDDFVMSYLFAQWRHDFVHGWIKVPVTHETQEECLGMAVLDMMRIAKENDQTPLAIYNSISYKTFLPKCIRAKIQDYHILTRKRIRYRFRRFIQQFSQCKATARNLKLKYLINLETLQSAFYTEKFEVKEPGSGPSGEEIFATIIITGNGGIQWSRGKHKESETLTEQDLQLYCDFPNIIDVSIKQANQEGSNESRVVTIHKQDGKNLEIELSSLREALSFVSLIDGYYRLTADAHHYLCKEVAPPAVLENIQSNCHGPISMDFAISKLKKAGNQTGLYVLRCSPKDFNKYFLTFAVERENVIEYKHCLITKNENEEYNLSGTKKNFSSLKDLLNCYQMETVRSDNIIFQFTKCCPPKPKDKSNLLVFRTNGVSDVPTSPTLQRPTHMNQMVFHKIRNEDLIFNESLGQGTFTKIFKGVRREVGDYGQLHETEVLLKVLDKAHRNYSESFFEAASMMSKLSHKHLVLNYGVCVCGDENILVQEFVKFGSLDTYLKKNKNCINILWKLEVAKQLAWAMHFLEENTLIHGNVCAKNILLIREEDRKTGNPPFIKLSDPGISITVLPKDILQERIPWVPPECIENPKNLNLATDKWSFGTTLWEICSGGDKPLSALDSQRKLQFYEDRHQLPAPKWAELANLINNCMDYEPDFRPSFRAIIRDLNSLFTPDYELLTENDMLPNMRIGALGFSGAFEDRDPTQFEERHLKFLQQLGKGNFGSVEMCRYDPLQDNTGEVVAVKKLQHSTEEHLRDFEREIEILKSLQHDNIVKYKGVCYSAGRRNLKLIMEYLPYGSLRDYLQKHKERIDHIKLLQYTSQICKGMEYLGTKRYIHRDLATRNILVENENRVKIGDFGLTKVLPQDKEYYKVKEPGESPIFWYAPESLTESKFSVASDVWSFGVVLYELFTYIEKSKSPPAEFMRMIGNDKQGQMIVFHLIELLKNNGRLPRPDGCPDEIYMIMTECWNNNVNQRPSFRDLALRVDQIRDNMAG

Compound	IC50 (JAK2)	IC50 (JAK3)
CC[C@H](Cn1ccc2cnc(Nc3cnn(CC(N)=O)c3)nc21)C(C)C [Example 1, (S)-2-(4-((7-(2-ethyl-3-methylbutyl)-7H-pyrrolo[2,3-d]pyrimidin-2-yl)amino)-1H-pyrazol-1-yl) acetamide]	< 100 nM	< 100 nM
CC[C@H](Cn1ccc2cnc(Nc3cnn(CC(=O)N4CCOC4=O)c3)nc21)C(C)C [Example 3, (5)-3-(2-(4-((7-(2-ethyl-3-methylbutyl)-7H-pyrrolo[2,3-d]pyrimidin-2-yl)amino)-1H-pyrazol-1-yl)acetyl) oxazolidin-2-one]	< 100 nM	< 100 nM
CCC(CC)Cn1ccc2cnc(Nc3cnn(CC(N)=O)c3)nc21 [Example 7, 2-(4-((7-(2-ethylbutyl)-7H-pyrrolo[2,3-d]pyrimidin-2-yl)amino)-1H-pyrazol-1-yl) acetamide]	< 100 nM	< 100 nM
CC[C@@H](Cn1ccc2cnc(Nc3cnn(C4CCNC4=O)c3)nc21)C(C)C (some centres unmarked) [Example 8]	< 100 nM	< 100 nM
